The text below walks through data of patent US8518932B2, “Oxime azetidine derivatives as sphingosine 1-phosphate (S1P) receptor modulators” (Allergan, Inc., priority 2010, dated 2013).

The target of this assay is T1, human S1P1 receptor (Homo sapiens, UniProt P21453).
T1 construct: expressed in transfected cells; membranes used
T1 sequence (P21453 whole entry): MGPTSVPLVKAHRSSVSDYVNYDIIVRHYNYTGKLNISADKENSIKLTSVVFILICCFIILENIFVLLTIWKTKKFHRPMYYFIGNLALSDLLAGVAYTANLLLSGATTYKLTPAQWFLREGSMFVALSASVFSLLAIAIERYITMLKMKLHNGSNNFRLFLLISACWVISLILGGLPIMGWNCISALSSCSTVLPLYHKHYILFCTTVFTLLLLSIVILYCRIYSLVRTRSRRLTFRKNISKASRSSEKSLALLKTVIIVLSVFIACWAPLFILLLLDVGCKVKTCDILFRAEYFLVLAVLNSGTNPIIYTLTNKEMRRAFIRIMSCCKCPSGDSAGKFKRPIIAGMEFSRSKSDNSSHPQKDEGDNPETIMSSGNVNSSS
Kind of assay: GTP γ35S binding assay for S1P1 activity. Type of assay: biochemical. The settings on record: membranes of cells stably expressing the S1P1 receptor, test compounds 0.08 to 5,000 nM, 30 min at 25° C. The procedure: Compounds were synthesized and tested for S1P1 activity using the GTP γ^35S binding assay. These compounds may be assessed for their ability to activate or block activation of the human S1P1 receptor in cells stably expressing the S1P1 receptor.
GTP γ^35S binding was measured in the medium containing (mM) HEPES 25, pH 7.4, MgCl2 10, NaCl 100, dithitothreitol 0.5, digitonin 0.003%, 0.2 nM GTP γ^35S, and 5 μg membrane protein in a volume of 150 μl. Test compounds were included in the concentration range from 0.08 to 5,000 nM unless indicated otherwise. Membranes were incubated with 100 μM 5′-adenylylimmidodiphosphate for 30 min, and subsequently with 10 μM GDP for 10 min on ice. Drug solutions and membrane were mixed, and then reactions were initiated by adding GTP γ^35S and continued for 30 min at 25° C. Reaction mixtures were filtered over Whatman GF/B filters under vacuum, and washed three times with 3 mL of ice-cold buffer (HEPES 25, pH7.4, MgCl2 10 and NaCl 100). Filters were dried and mixed with scintillant, and counted for ^35S activity using a β-counter. Agonist-induced GTP γ^35S binding was obtained by subtracting that in the absence of agonist. Binding data were analyzed using a non-linear regression method. In case of antagonist assay, the reaction mixture contained 10 nM S1P in the presence of test antagonist at concentrations ranging from 0.08 to 5000 nM.
For orientation: GTPγS resists hydrolysis and so accumulates on activated G proteins.
Take `C/C(=N\OCC(Cc1ccc(C)c(C)c1)c1cccc(Cl)c1)c1ccc(CN2CC(C(=O)O)C2)cc1` (centres unmarked) [Compound 2, 1-(4-{(1E)-N-[2-(3-chlorophenyl)-3-(3,4-dimethylphenyl)propoxy]ethanimidoyl}benzyl)azetidine-3-carboxylic acid]: the EC50 (in general, the midpoint of the concentration-response curve) stood at 9.05 nM.
The same measure for `C/C(=N\OCC(Cc1ccc(C)c(C)c1)c1cccc(C)c1)c1ccc(CN2CC(C(=O)O)C2)cc1` (centres unmarked) [Compound 1, 1-(4-{(1E)-N-[2-(3-methylphenyl)-3-(3,4-dimethylphenyl)propoxy]ethanimidoyl}benzyl)azetidine-3-carboxylic acid]: 16.5 nM; for `C/C(=N\OCc1ccc(CN2CC(C(=O)O)C2)cc1)C(Cc1ccc(C)c(C)c1)c1cccc(Cl)c1` (centres unmarked) [Compound 3, 1-{4-[({[(1E)-2-(3-chlorophenyl)-3-(3,4-dimethylphenyl)-1-methylpropylidene]amino}oxy)methyl]benzyl}azetidine-3-carboxylic acid]: 230 nM.
The same measure for `C/C(=N\OCc1ccc(CN2CC(C(=O)O)C2)cc1)C(Cc1ccc(C)c(C)c1)c1cc(F)cc(F)c1` (centres unmarked) [Compound 4, 1-{4-[({[(1E)-2-(3,5-difluorophenyl)-3-(3,4-dimethylphenyl)-1-methylpropylidene]amino}oxy)methyl]benzyl}azetidine-3-carboxylic acid]: 17.5 nM; for `C/C(=N\OCC(Oc1ccc(C)c(C)c1)c1cccc(Cl)c1)c1ccc(CN2CC(C(=O)O)C2)cc1` (centres unmarked) [Compound 8, 1-(4-{(1E)-N-[2-(3-chlorophenyl)-2-(3,4-dimethylphenoxy)ethoxy]ethanimidoyl}benzyl)azetidine-3-carboxylic acid]: 163 nM.
